Literature values as cited in patent US11596657B2, “Use of AhR agonist for the preventive or curative treatment of metabolic syndrome and the associated disorders” (INSTITUT NATIONAL DE LA RECHERCHE AGRONOMIQUE, priority 2016, dated 2023).

Columns and labels:
[1] = system: male C57Bl/6J mice fed a Western diet
human AhR = target: T1, human AhR (Homo sapiens, UniProt P35869); settings: potency compared with TCDD
T1 sequence (P35869 11-848): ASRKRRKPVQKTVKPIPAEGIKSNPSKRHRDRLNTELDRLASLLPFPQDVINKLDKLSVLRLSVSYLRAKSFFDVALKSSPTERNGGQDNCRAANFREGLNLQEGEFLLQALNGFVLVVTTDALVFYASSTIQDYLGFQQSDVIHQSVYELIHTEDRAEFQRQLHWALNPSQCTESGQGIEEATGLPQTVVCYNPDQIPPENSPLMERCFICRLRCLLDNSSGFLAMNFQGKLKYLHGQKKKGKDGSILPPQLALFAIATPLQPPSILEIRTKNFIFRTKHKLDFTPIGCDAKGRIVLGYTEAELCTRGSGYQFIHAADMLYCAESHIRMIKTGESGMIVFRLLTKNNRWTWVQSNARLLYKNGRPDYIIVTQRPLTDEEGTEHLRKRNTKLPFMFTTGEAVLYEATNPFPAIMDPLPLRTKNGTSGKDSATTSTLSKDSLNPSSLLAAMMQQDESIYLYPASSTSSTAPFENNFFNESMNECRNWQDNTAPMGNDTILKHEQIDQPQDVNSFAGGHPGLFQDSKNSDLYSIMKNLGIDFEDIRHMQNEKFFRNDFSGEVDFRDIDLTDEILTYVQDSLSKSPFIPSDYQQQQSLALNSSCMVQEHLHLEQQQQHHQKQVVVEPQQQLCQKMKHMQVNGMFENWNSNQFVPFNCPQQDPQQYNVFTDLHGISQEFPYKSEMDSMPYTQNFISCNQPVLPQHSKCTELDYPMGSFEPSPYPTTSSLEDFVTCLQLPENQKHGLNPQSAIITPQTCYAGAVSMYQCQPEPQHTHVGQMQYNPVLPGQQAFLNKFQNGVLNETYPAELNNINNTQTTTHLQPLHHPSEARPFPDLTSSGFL

| Compound | obesity, adiposity and liver steatosis [1] | activation of human AhR (human AhR) |
| --- | --- | --- |
| O=c1cc(-c2ccccc2)oc2c1ccc1ccccc12 [α-naphthoflavone] | significantly reduce obesity and adiposity and ameliorates liver steatosis | – |
| Cc1cc(C)c(C=C2C(=O)Nc3ccccc32)[nH]1 [SU5416, 3-(3,5-dimethyl-1H-pyrrol-2-ylmethylene)-1,3-dihydro-indole-2-one] | – | activates the human AhR with a potency approaching TCDD |
| Cc1ccccc1N=Nc1ccc(NC(=O)c2ccnn2C)c(C)c1 [CH-223191] | significantly reduce obesity and adiposity and ameliorates liver steatosis | – |
